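Cultured in 96-well plates, cells were exposed to test compound for 48 hours across five concentrations. At the TGI there is no net growth.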
Assays:
Assay in all cases: growth of human tumour cells (NCI), 48 h
NCI-H460 lung = test system: NCI-H460 lung
SN12C renal = test system: SN12C renal
MDA-MB-435 = test system: MDA-MB-435
UACC-62 melanoma = test system: UACC-62 melanoma
SK-MEL-5 melanoma = test system: SK-MEL-5 melanoma
SW-620 colon = test system: SW-620 colon
786-0 renal = test system: 786-0 renal
SF-539 CNS = test system: SF-539 CNS
OVCAR-5 ovarian = test system: OVCAR-5 ovarian
SNB-19 CNS = test system: SNB-19 CNS
SNB-75 CNS = test system: SNB-75 CNS
NCI-H226 lung = test system: NCI-H226 lung
K-562 leukemia = test system: K-562 leukemia
HT29 colon = test system: HT29 colon
U251 CNS = test system: U251 CNS
MOLT-4 leukemia = test system: MOLT-4 leukemia
SF-295 CNS = test system: SF-295 CNS
KM12 colon = test system: KM12 colon
MALME-3M melanoma = test system: MALME-3M melanoma
RXF 393 renal = test system: RXF 393 renal

| Compound | TGI (NCI-H460 lung) [µM] | TGI (SN12C renal) [µM] | TGI (MDA-MB-435) [µM] | TGI (UACC-62 melanoma) [µM] | TGI (SK-MEL-5 melanoma) [µM] | TGI (SW-620 colon) [µM] | TGI (786-0 renal) [µM] | TGI (SF-539 CNS) [µM] | TGI (OVCAR-5 ovarian) [µM] | TGI (SNB-19 CNS) [µM] | TGI (SNB-75 CNS) [µM] | TGI (NCI-H226 lung) [µM] | TGI (K-562 leukemia) [µM] | TGI (HT29 colon) [µM] | TGI (U251 CNS) [µM] | TGI (MOLT-4 leukemia) [µM] | TGI (SF-295 CNS) [µM] | TGI (KM12 colon) [µM] | TGI (MALME-3M melanoma) [µM] | TGI (RXF 393 renal) [µM] |
| --- | --- | --- | --- | --- | --- | --- | --- | --- | --- | --- | --- | --- | --- | --- | --- | --- | --- | --- | --- | --- |
| C[n+]1c2ccccc2c(C(=O)Nc2ccc(S(=O)(=O)Nc3ccnn3-c3ccccc3)cc2)c2ccccc21 | > 100 | > 100 | > 100 | > 100 | > 100 | > 100 | > 100 | > 100 | > 100 | > 100 | > 100 | > 100 | > 100 | > 100 | > 100 | > 100 | > 100 | > 100 | > 100 |  |
| N#CCc1nc2ccccc2c(=O)[nH]1 | > 100 | > 100 | > 100 |  | > 100 | > 100 | > 100 | > 100 | > 100 | > 100 | > 100 | > 100 |  | > 100 | > 100 | > 100 | > 100 | > 100 |  |  |
| CCNCCNc1c2ccccc2nc2ccccc12 | 1.54 | 4.91 | 2.59 | 3.26 | 7.41 | 2.84 | 13.4 | 2.21 | 7.62 | 4.69 | 3.52 |  | 5.66 | > 100 |  | > 100 | 3.3 | 4.79 | 4.6 | 3.31 |
| O=C1c2c(ccc3c2CCCC3)CC12Cc1ccc3c(c1C2=O)CCCC3 | > 100 |  | > 100 |  | > 100 | > 100 | > 100 | > 100 | > 100 | > 100 | > 100 |  | > 100 | > 100 | > 100 | > 100 | > 100 |  | > 100 | > 100 |
| O=S(=O)(O)c1ccc(O)c2ncc(Cl)cc12 | > 100 | > 100 | > 100 | > 100 | > 100 | > 100 | > 100 | > 100 | > 100 | > 100 | > 100 | > 100 | > 100 | > 100 | > 100 | > 100 | > 100 | > 100 |  | > 100 |
| S=c1sc2c(s1)SCCCCSCCCCSc1sc(=S)sc1SCCCCSCCCCS2 | > 100 | > 100 | > 100 | > 100 | > 100 | > 100 | > 100 | > 100 | > 100 | > 100 | 59.2 | > 100 | > 100 | > 100 | > 100 | > 100 | > 100 | > 100 | > 100 |  |
| O=Nc1c(O)cc(Nc2ccc(Br)cc2)c2ccccc12 | 11 | > 63.6 | 3.37 |  | 3.15 | 35 | 27.3 | > 100 | 29.8 | 11.8 |  | 10.5 | > 75 | 28.1 | 40.8 | 42 | 2.98 | 23.1 |  | 50.3 |
| CCC1C(C#N)=C(N)OC2=C1C(=O)CC(C)(C)C2 (centres undefined) | > 100 | > 100 | > 100 | > 100 | > 100 | > 100 | > 100 | > 100 | > 100 | > 100 |  |  |  | > 100 | > 100 | > 100 | > 100 | > 100 | > 100 |  |
| COc1cc(/C=C/C(=O)c2ccc(NS(=O)(=O)c3cc([N+](=O)[O-])ccc3C)cc2)cc(OC)c1OC |  | 4.52 | 16.3 |  | 15.4 | 25.5 | 7.14 | 6.3 | 11.8 | 14.1 | 14.2 | 8.74 | 10.9 | 14.4 | 13.7 | 6.58 | 16.4 | 8.02 |  | 11.1 |
| COc1ccc(/C=C2\C(=O)N(C3OC(COC(C)=O)C(OC(C)=O)C(OC(C)=O)C3OC(C)=O)c3ccccc3N=C2N)cc1 (centres undefined) | 75.8 | > 100 | 35.7 | 45.8 | 23.4 | > 100 | 37.5 | 21.4 | > 100 | > 100 | 54 |  | 38.1 | 38 | > 100 | 39.7 | 72.1 | > 100 | 84.5 | 62.2 |
| COc1cc(C=C2C(C)=NN(c3cccc(Cl)c3)C23SCC(=O)N3c2nc3ccccc3s2)ccc1O (centres undefined) | > 100 | > 100 | > 100 | 96.1 | 40.7 | 96.9 | > 91.5 | > 58.4 | > 100 | > 100 |  | > 80.7 | 37.2 | > 100 | 41.4 | 35.1 | > 100 | > 95.1 | 47.6 | 62.7 |
| O=C(Cc1ccccc1)NNc1nc(NNC(=O)c2ccncc2)nc(Nc2ccc([N+](=O)[O-])cc2)n1 | > 10 | > 10 | > 10 | > 10 | > 10 | > 10 | > 10 | > 10 | > 10 | > 10 | > 10 |  | > 10 | > 10 | > 10 | > 10 | > 10 | > 10 | > 10 |  |
| CS(=O)(=O)N1CC(CCl)c2ccc([N+](=O)[O-])cc21 (centres undefined) | > 100 | > 100 | > 100 | > 100 | > 100 | > 100 | > 100 | > 100 | > 100 | > 100 |  | > 100 | > 100 | > 100 | > 100 | > 100 | > 100 | > 100 | > 100 | > 100 |
| COC(O)C(=O)c1c2c(cc3c1CC1(Cc4cc5c(cc4C1)CCC5)C3)CCC2 (centres undefined) | 42.7 |  | 6.58 |  | 31.3 | 35.5 | 27 | 31.5 | 33.5 | 36.1 | 31.6 |  | 36.2 | 22.7 | 25.7 | 33.8 | 41.8 |  | 31.2 | 29 |
| CCN(CC)CCC(=O)c1ccc(Oc2ccc(Cl)cc2)cc1 | 29.2 | 31.2 | 34.2 | 35.2 | 31.2 | 44.4 | 28.3 | 42.1 | 29.9 | > 100 | 25.5 |  | > 100 | 47.2 | 33.1 | 42.2 | 32.4 | 32.2 | 34.8 | 43.2 |
| CC(=O)CCCCC(=O)Nc1ccc(CC(NC(=O)OC(C)(C)C)C(=O)NCC(=O)OCc2ccccc2)cc1 (centres undefined) | 43 | 64.4 | 36 |  | 27.8 | 33 | 49 | 34.1 | > 100 | 55 |  | 94 | 47.6 | 36.7 | 32.7 | 66.4 | 35.6 | 52.1 | 40.4 | 54.5 |
| CC[C@H]1C=CCC[C@@]2(C[C@@H]3CC[C@@H]4[C@H](C(=O)OCCCCCCCCCCCCCCCC(=O)O)[C@]5(CCC[C@@H](C)O5)NC(=[N+]34)N2)O1 | 1.12 | 7.93 | 6.27 | 0.179 | 0.251 | 6.37 | 0.418 | 3.12 | 8.73 | 9.46 |  | 3.69 | 5.73 | 5.61 | 0.903 | 2.84 | 2.09 | 5.76 | 0.423 | 1.9 |
| NC1CC(=O)c2sc(I)cc21 (centres undefined) | > 100 | > 100 | > 100 | > 100 | > 100 | > 100 | > 100 | > 100 | > 100 | > 100 | > 100 |  | > 100 | > 100 | > 100 | > 100 |  | > 100 | > 100 | > 100 |
| CCOC(=O)c1c(N2CCCC2)nsc1Nc1ccc(F)cc1 | > 100 | > 100 | > 100 | > 100 | 34.3 | > 100 | > 100 | > 100 | 89.7 | > 100 |  | > 100 | > 100 | 68 | > 100 | 70.1 | > 100 | > 100 | 57.5 | 31.9 |
| CCCC1(NC(=O)C(F)(F)F)CC(OC)OC2COC(c3ccccc3)OC21 (centres undefined) | > 100 | > 100 | > 100 | > 100 | 45.2 | > 100 | > 100 | > 100 | > 100 | > 100 | > 100 | > 100 | > 100 |  | > 100 | > 100 | > 100 |  | > 100 | > 100 |
